Reference: ChEMBL document CHEMBL1140269, “Amino-substituted heterocycles as isosteres of trans-cinnamides: design and synthesis of heterocyclic biaryl sulfides as potent antagonists of LFA-1/ICAM-1 binding” (Bioorg Med Chem Lett, 2005)

Assays:
[1] = target: T1, Intercellular adhesion molecule (ICAM-1), Integrin alpha-L/beta-2 (Homo sapiens) (UniProt P20701+P05362+P05107); assay: Inhibitory activity against ICAM-1/integrin LFA-1 binding complex at 20 uM concentration; assay type: protein-complex assay
[2] = target: T1, Intercellular adhesion molecule (ICAM-1), Integrin alpha-L/beta-2 (Homo sapiens); assay: Inhibitory activity against ICAM-1/integrin LFA-1 binding complex at 1 uM concentration; assay type: protein-complex assay
[3] = target: T2, Intercellular adhesion molecule (ICAM-1), Integrin alpha-L/beta-2 (Homo sapiens, UniProt P05107+P20701); assay: Inhibitory concentration against integrin LFA-1/ICAM-1 binding complex; assay type: protein-complex assay
T2 sequence (P20701 whole entry): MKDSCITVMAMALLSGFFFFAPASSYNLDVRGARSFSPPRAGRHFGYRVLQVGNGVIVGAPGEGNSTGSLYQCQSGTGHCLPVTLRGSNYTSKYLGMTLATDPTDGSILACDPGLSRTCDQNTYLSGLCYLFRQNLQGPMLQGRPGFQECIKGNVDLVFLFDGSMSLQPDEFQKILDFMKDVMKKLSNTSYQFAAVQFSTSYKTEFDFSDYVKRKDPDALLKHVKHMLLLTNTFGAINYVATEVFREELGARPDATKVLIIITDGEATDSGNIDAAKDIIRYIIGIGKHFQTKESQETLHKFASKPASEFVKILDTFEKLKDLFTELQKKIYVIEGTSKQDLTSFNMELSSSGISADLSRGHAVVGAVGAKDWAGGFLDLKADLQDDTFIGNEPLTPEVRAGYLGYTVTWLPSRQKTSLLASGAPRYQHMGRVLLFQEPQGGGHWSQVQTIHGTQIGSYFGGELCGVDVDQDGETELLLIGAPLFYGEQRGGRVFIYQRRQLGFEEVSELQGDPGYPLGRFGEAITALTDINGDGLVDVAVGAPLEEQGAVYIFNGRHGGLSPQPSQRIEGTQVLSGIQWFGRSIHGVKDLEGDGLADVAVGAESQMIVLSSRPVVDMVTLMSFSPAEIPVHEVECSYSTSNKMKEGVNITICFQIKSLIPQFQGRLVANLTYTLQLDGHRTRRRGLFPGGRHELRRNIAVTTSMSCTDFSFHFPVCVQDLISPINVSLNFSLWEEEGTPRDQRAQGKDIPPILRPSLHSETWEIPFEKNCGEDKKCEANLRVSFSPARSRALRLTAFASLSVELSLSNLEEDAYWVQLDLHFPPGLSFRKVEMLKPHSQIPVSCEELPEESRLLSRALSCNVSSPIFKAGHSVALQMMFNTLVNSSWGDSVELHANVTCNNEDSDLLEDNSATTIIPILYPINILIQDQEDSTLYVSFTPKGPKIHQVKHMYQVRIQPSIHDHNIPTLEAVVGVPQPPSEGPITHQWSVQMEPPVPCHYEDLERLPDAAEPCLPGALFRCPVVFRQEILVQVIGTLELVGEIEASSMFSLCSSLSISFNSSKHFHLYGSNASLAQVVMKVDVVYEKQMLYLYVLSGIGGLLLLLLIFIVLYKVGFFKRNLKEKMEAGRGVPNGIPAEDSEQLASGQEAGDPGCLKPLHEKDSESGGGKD
T2 sequence (P05362 whole entry, further chain): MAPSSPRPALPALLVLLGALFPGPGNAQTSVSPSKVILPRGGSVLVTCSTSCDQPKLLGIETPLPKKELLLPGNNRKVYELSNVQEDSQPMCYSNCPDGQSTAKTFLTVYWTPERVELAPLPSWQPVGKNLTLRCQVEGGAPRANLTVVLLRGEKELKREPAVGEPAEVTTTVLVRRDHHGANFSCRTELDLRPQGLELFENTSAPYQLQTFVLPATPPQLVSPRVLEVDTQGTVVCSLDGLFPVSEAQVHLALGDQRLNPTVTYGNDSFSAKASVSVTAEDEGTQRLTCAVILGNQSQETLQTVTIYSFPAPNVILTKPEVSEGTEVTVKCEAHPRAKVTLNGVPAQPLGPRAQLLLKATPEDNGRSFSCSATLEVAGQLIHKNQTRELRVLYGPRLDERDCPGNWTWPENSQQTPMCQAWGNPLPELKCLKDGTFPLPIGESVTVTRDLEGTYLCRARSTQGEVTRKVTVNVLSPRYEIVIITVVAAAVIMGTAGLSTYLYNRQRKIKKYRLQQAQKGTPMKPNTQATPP
T2 sequence (P05107 whole entry): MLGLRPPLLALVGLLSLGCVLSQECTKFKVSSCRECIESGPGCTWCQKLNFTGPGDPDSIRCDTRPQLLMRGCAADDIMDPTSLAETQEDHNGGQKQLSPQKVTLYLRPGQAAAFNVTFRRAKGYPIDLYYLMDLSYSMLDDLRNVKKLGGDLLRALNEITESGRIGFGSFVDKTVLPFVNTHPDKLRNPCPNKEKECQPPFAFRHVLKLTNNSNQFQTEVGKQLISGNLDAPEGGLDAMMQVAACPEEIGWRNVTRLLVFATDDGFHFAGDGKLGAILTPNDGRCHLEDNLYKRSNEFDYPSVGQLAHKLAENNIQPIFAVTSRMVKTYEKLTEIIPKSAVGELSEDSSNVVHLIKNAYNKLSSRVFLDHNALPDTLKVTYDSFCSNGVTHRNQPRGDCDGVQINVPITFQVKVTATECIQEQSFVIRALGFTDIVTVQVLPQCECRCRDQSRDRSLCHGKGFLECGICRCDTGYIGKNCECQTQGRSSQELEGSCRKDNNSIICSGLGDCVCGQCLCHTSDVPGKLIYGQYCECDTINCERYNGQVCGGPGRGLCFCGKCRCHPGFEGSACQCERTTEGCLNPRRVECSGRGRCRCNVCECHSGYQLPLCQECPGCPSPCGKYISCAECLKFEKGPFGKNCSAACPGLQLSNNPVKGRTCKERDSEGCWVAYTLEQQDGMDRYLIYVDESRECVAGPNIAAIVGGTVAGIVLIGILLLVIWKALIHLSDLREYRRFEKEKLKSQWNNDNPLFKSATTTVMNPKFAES

[4] = target: T2, Intercellular adhesion molecule (ICAM-1), Integrin alpha-L/beta-2; assay: Effective concentration to measure the adherence of LFA-1 expressing JY8 cells to immobilized ICAM-1 in cell-based adhesion assay

Row | Structure (SMILES) | inhibition [2] [%] | other results
1 | CC(C)c1ccccc1Sc1ccc(-c2csc(N3CCCCC3)n2)cc1C(F)(F)F | – | inhibition [1]: 40%
2 | Cc1ccc(C)c(N2CCN(c3cc(-c4ccc(Sc5ccccc5C(C)C)c(C(F)(F)F)c4)ccn3)CC2)c1 | 0 | –
3 | CC(C)c1ccccc1Sc1ccc(-c2ccnc(N3CCN(c4ccccn4)CC3)c2)cc1C(F)(F)F | 40 | –
4 | CC(C)c1ccccc1Sc1ccc(-c2ccnc(N3CCN(C)CC3)c2)cc1C(F)(F)F | 58 | –
5 | CC(C)c1ccccc1Sc1ccc(-c2ccnc(N3CCCCCC3)c2)cc1C(F)(F)F | 34 | –
6 | CC(C)c1ccccc1Sc1ccc(-c2cc(N3CCCC(c4nn[nH]n4)C3)ncn2)cc1C(F)(F)F (stereo not given) | – | IC50 [3]: 51 nM; EC50 [4]: 20 nM
7 | CCN1CCN(c2cc(-c3ccc(Sc4ccccc4C(C)C)c(C(F)(F)F)c3)ccn2)CC1 | 54 | –
8 | CC(C)c1ccccc1Sc1ccc(-c2cc(N3CCCC(C(=O)O)C3)ncn2)cc1C(F)(F)F (stereo not given) | – | IC50 [3]: 120 nM; EC50 [4]: 90 nM
